Assay results taken from publication PMC12190736, “Development and In Vitro Characterization of [^3H]GMC-058 as Radioligand for Imaging Parkinsonian-Related Proteinopathies” (Cells, 2025).
Where two headings read alike, the source gives them in different places.

Key:
tau fibrils = tau fibrils (Homo sapiens, UniProt P10636); experiment: [^3H]NFT-355 binding displacement on AD brain homogenates; details: AD brain homogenate, 0.5 nM [^3H]NFT-355
Procedure: (§1) Compounds’ affinity for tau and Aβ fibrils was measured by means of radioligand binding displacement experiments on AD brain homogenates, using [^3H]NFT-355 [8] (AbbVie, North Chicago, IL, USA) and [^3H]Pittsburg Compound-B (PiB; Novandi Chemistry AB, Södertälje, Sweden) to label tau and Aβ aggregates, respectively. Flash-frozen tissue from the frontal cerebral cortex of an AD (Braak stage V) brain was purchased from Analytical Biological Services Inc. (ABS; Wilmington, DE, USA), homogenized in DPBS, divided into aliquots (10 mg/mL), and stored at −80 °C until the day of the experiment.
(§2) On the day of the experiment, the brain homogenate was brought to RT, diluted in DPBS plus 0.1% BSA and incubated for 90 min, at RT, with 0.5 nM [^3H]NFT-355 or 1 nM [^3H]PiB, in the absence or presence of different concentrations of non-radiolabeled compounds. Bound radioligand was separated from free radioligand via rapid filtration and washings with cold DPBS, using a Unifilter-96 GF/B filter plate (presoaked in 0.3% PEI) and a Unifilter Cell Harvester (PerkinElmer). Plates were air-dried, and the scintillation liquid (Betaplate Scint, PerkinElmer) was added and counted using a MicroBeta2 2450. NSB was defined as the binding in the presence of 10 µM T808 [10] (AbbVie Germany) and 10 µM PiB for [^3H]NFT-355 and [^3H]PiB, respectively. Data fitting was performed using the software platform from Dotmatics (Boston, MA, USA).

[1] = molecular target: recombinant α-syn fibrils (Homo sapiens, UniProt P37840); experiment: Radioligand binding displacement of [^3H]-α-syn-tool on α-syn fibrils; details: 5 nM [^3H]-α-syn-tool
Procedure: Compound affinity for α-syn fibrils was measured by means of radioligand binding displacement experiments of an AbbVie tool radioligand with high affinity for α-syn fibrils ([^3H]-α-syn-tool). The aggregation of α-syn monomers into fibrils was obtained as described by Bousset et al.. In brief, monomers (5 mg/mL, prepared in AbbVie (Worcester, MA, USA) were incubated in 150 mM of KCl and 50 mM of Tris-HCl (pH 7.5) for 7 days at 37 °C, under constant shaking conditions (650 rpm, Eppendorf Thermomixer C, Eppendorf, Hamburg, Germany). After incubation, the fibrils were harvested via ultra-centrifugation (40,100× g, 30 min, 20 °C), resuspended in buffer, sonicated (40% amplitude, 10 s pulse on, 5 s pulse off) for 4.5 min at 20 °C, divided into aliquots (5.5 mg/mL), and stored at −80 °C until the day of the experiment. The characterization of the fibrils included protein content determination (BCA method) and an analysis of Proteinase K degradation pattern.
On the day of the experiment, α-syn fibrils were thawed for a few minutes at 37 °C, diluted in Dulbecco’s Phosphate Buffered Saline (PBS) without calcium and magnesium, pH = 7.4 (DPBS) plus 0.1% bovine serum albumin (BSA), and incubated (at the final fibrils concentration of 2.5 µg/mL) for 60 min, at room temperature (RT), with 5 nM [^3H]-α-syn-tool, in the absence or presence of different concentrations of non-radiolabeled compounds. Bound radioligand was separated from free radioligand via rapid filtration and washings with cold DPBS, using a Unifilter-96 GF/B filter plate (PerkinElmer, Rodgau, Germany) presoaked in 0.3% polyethylenimmine (PEI) and a Unifilter Cell Harvester (PerkinElmer, Rodgau, Germany). Plates were air-dried, and the scintillation liquid (Betaplate Scint, PerkinElmer) was added and counted using a MicroBeta2 2450 (Perkinelmer, Rodgau, Germany). Non-specific binding (NSB) was defined as the binding in the presence of 10 µM unlabeled α-syn tool. Data fitting and the constant of inhibition (Ki) calculation was performed using the software platform from Dotmatics (Boston, MA, USA).

Aβ fibrils = Aβ fibrils (Homo sapiens, UniProt P05067); experiment: [^3H]PiB binding displacement on AD brain homogenates; details: AD brain homogenate, 1 nM [^3H]PiB
Procedure: as §1, §2

α-syn = details: cited from earlier work
[2] = test system: fresh-frozen human brain sections; experiment: Autoradiography on fresh-frozen brain tissue sections; type: binding; details: for NSB: 5 µM GMC044; for NSB / Total Minus NSB / Total binding: gray matter of cingulate cortex, control C03; for Binding displaced by GMC-044: 5 µM GMC-044, control cingulate cortex tissue; for Binding in control tissue: cingulate cortex of healthy controls
Procedure: Selections of frozen human sections (described in Table 2 and Table 3) were used for binding autoradiography. Sections were first pre-incubated for 20 min in binding buffer [50 mM Tris-HCl (pH 7.4), 120 mM NaCl, 5 mM KCl, 2 mM CaCl2, 1 mM MgCl2, and 0.1% BSA] and then incubated with [^3H]GMC-058 (specific activity 22 Ci/mmol); [^3H]GMC-073 (specific activity 23.4 Ci/mmol); or […] in binding buffer for 180 min at RT. In the pilot autoradiography experiment (Figure A1). [^3H]GMC-058 was tested at 25 and 50 nM, while [^3H]GMC-073 and [^3H]GMC-098 were each tested at 10 and 20 nM. For all other autoradiography in fresh-frozen tissue sections, 25 nM [^3H]GMC-058 was used. To determine NSB, adjacent brain sections were incubated with [^3H]-tracer mixed with 5 μM of unlabeled GMC-044. The binding reaction was stopped with two 10 min washes in washing buffer [50 mM Tris-HCl (pH 7.4) at 4 °C] and a brief dip in cold distilled water. Slides were allowed to air-dry before being placed under storage phosphor screens (Fujifilm Plate BAS-TR2025, Fujifilm, Tokyo, Japan) in imaging cassettes for 90 h together with ART0123C and ART0123B tritium standards on glass slides (American Radiolabeled Chemicals Inc., St. Louis, MO, USA). Storage phosphor screens were scanned using an Amersham Typhoon FLA-9500 phosphor imaging scanner (Cytiva, Marlborough, MA, USA), and the resulting images were analyzed using Multi Gauge 3.2 phosphor imager software (Fujifilm, Tokyo, Japan) for ROI delimitation, density calibration, and quantification. Quantitative binding data from duplicates of the total, and NSB were plotted and analyzed using graphPad Prism v10 (GraphPad Software, Boston, MA, USA). Specific binding was determined by subtracting the non-specific signal from the total signal. The toluidine blue staining of adjacent sections was used to obtain anatomical references for white- and gray-matter ROI selection. Care was taken not to include artifact signals in the ROIs analyzed. These artifacts were identified as randomly placed punctate signals appearing in both total and NSB images, and they often coincided with small folds or tears in the tissue sections.

Aβ = details: AD; read-out: IC50 or KD Aβ; cited from earlier work
pTau = details: AD; read-out: IC50 or KD pTau; cited from earlier work

Chain of Aβ fibrils (P05067 672-711 limits assumed): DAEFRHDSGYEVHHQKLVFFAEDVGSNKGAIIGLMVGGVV
Chain of tau fibrils (P10636 623-708 limits assumed): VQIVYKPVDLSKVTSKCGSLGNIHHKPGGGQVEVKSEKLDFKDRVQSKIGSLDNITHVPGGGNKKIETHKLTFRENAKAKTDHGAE

Row | Ki (tau fibrils) [nM] | Ki [1] [nM] | Ki (Aβ fibrils) [nM] | Compound | further results
1 | 50 | 29.7 | 141 | COc1ccc(CC(=O)Nc2ccc(N3CCN(c4ccc(C#N)cn4)CC3)cc2)cc1 [GMC025] | 
2 | 68 | 25.3 | 81 | COc1cccc(CC(=O)Nc2ccc(N3CCN(c4ccc(C#N)cn4)CC3)cc2)c1 [GMC024] | 
3 | 90 | 6.8 | 64 | COc1ccccc1NC(=O)Nc1ccc(N2CCN(c3ccccn3)CC2)cc1 [GMC070] | 
4 | 26 | 15.2 | 809 | COc1ccccc1CC(=O)Nc1ccc(N2CCN(c3ccc(F)cc3)CC2)cc1C#N [GMC086] | 
5 | 2510 | 6.5 | 51 | COc1ccc(-c2ccc(NC(=O)N3CCN(c4ccc(OC)cc4)CC3)cc2C#N)cc1 [GMC096] | 
6 | 86 | 14.2 | 8180 | COc1ccccc1NC(=O)Nc1ccc(N2CCN(c3ccccn3)CC2)c(C#N)c1 [GMC071] | 
7 | 44 | 21.2 | 151 | COc1ccccc1CC(=O)Nc1ccc(N2CCN(c3ccc(C#N)cn3)CC2)cc1 [GMC023] | 
8 | 692 | 25.2 | 3440 | C[C@@H](C(=O)Nc1ccc(N2CCN(c3ccc(C#N)cn3)CC2)cc1)c1ccccc1 [GMC044] | 
9 | 2510 | 23.9 | 404 | COc1ccccc1CC(=O)Nc1ccc(N2CCN(c3ccc(F)cc3)CC2)nc1 [GMC079] | 
10 |  |  |  | CNc1cnc(C#C/C=C/c2nc3ccc(OCC(O)CF)cc3s2)cn1 (centres unmarked) [[^18F]SPAL-T-06] | IC50 (α-syn; MSA, read-out: IC50 or KD α-syn): 2.5 nM; IC50 (α-syn; brain homogenates from DLB or MSA cases, homologous competition binding studies, read-out: IC50): 2 to 3 nM
11 | 248 | 8 | 2630 | COc1ccccc1NC(=O)Nc1ccc(N2CCN(c3ccc(F)cc3)CC2)c(C#N)c1 [GMC-073] | 
12 | 1320 | 22.5 | 1490 | COc1ccc(N2CCN(c3ccc(NC(=O)C(C)(C)C)cc3)CC2)cc1 [GMC-058] | 
13 | 805 | 9.7 | 226 | COc1ccc(-c2ccc(NC(=O)N3CCN(c4ccccc4)CC3)cc2C#N)cc1 [GMC-098] | 
14 |  |  |  | [3H]c1cccc(NC(=O)Nc2ccc(N3CCN(c4ccc(F)cc4)CC3)c(C#N)c2)c1OC [[^3H]GMC-073, 1-(3-cyano-4-(4-(4-fluorophenyl)piperazin-1-yl)phenyl)-3-(2-methoxy-[3-3H]-phenyl)urea] | NSB ([2]; 10 nM radioligand): 346.9 ± 14.5 fmol/mg tissue equivalent; Total Minus NSB ([2]; 10 nM radioligand): 318 fmol/mg; Total binding ([2]; 10 nM radioligand): 664.6 ± 24.3 fmol/mg tissue equivalent; NSB ([2]; 20 nM radioligand): 1022 ± 45 fmol/mg tissue equivalent; Total Minus NSB ([2]; 20 nM radioligand): 848 fmol/mg; Total binding ([2]; 20 nM radioligand): 1870 ± 100.2 fmol/mg tissue equivalent; Binding displaced by GMC-044 [2]: approximately 50%; Binding in control tissue [2]: clear binding
15 | 2510 | 14.5 | 2630 | COc1ccc(-c2ccc(NC(=O)N3CCN(c4ccc(C#N)cn4)CC3)cc2C#N)cc1 [GMC095] | 
16 |  |  |  | O=C1c2cn(-c3ccc(N4CC[C@@H](F)C4)nc3)nc2CN1c1cccnc1 [[^18F]ACI-12589] | Kd (Aβ): 317 nM; Kd (α-syn; MSA, read-out: IC50 or KD α-syn (converted)): 28 nM; Kd (α-syn; PD and MSA tissue, read-out: KD): ~30 nM; Kd (α-syn; sporadic PD, read-out: IC50 or KD α-syn (converted)): 33.5 ± 17.4 nM; Kd (pTau): 317 nM
17 | 761 | 28.3 | 294 | COc1ccc(-c2ccc(NC(=O)N3CCN(c4ccccn4)CC3)cc2C#N)cc1 [GMC015] | 
18 | 2510 | 22.2 | 889 | O=C(Nc1ccc(N2CCN(Cc3ccc(Cl)c(Cl)c3)CC2)cc1)c1cnccn1 [GMC021] | 
19 | 151 | 25.5 | 63 | COc1ccc(/C=C/c2ccc(N3CCN(c4ccc(C#N)cn4)CC3)cc2)cn1 [GMC013_FR-1] | 
20 |  |  |  | [3H]c1ccc(N2CCN(C(=O)Nc3ccc(-c4ccc(OC)cc4)c(C#N)c3)CC2)cc1 [[^3H]GMC-098, N-(2-cyano-4′-methoxy-[1,1′-biphenyl]-4-yl)-4-([4-3H]phenyl)piperazine-1-carboxamide] | NSB ([2]; 10 nM radioligand): 1878 ± 74.1 fmol/mg tissue equivalent; Total Minus NSB ([2]; 10 nM radioligand): 827 fmol/mg; Total binding ([2]; 10 nM radioligand): 2705 ± 62.2 fmol/mg tissue equivalent; NSB ([2]; 20 nM radioligand): 2336 ± 48.5 fmol/mg tissue equivalent; Total Minus NSB ([2]; 20 nM radioligand): 2810 fmol/mg; Total binding ([2]; 20 nM radioligand): 5146 ± 386.2 fmol/mg tissue equivalent; Binding displaced by GMC-044 [2]: approximately 50%; Binding in control tissue [2]: clear binding
